EP0055702B1, “Antithrombotic treatment” (priority 1980, dated 1982)

Key:
[1] = PTT of coded and various agents, Example 6; type: biochemical; conditions: Table V, coded agents 0.5 mg/ml; Control 43.38
Source text: A variety of agents were coded and evaluated under a code designation. Among these compounds, thiouracil, mercaptosuccinic acid, thiosemicarbazide, phenothiazine and sodium thiosulphate were included, so as to compare sodium bisulphite with certain compounds mentioned in USP 4,148,855.
After determination of PT and PTT values, the coded compounds were decoded.
The results are shown in Table V, where mean values of 5 replications in each case are reported. […] This procedure was repeated with some additional compounds on two different days using a different control on each day.

human plasma [2] = test: Partial Thromboplastin Time, Example 4; type: biochemical
Source text: (§1) The evaluation procedure used is that described in "Human Blood Coagulation, Haemostasis and Thrombosis", edited by Rosemary Biggs, published by Blackwell Scientific Publications, Oxford, England (2nd Edition), pages 670-705, 1976. […]

human plasma [3] = test: Prothrombin Time, Example 4; type: biochemical
Source text: as §1

[4] = tested on: thrombus formation in the jugular vein; test: Anti-venous thrombotic effect, 125I fibrinogen technique in rabbits; type: in vivo
Source text: Also, a thrombosis is detectable, for example, from a patient's conditions symptomatically perceivable by a skilled medical practitioner and well known to the art of medicine. Objectively, various methods are available, including venography, impedance plethysmography, doppler ultrasound and the 1251-fibrinogen test (see, for example, the articles by Kakkar, "Archives of Surgery", 104, page 152 (1972) and by Kelton, J.G. et al, Journal of Clinical Investigation, Vol. 62, pgs. 892-895, (1978)).
The anti-venous thrombotic effect of sodium bisulphite was evaluated in rabbits by using the 1^125 fibrinogen technique described above.
Each rabbit was continuously infused with aqueous sodium bisulphite solution at the rate of 460 mg/kg per hr. (2.97 grams) (animal body weight 2.3 kg).
After 5 hours, the animal was sacrificed and the radioactive fibrinogen accumulated in the damaged jugular vein was determined. The radioactivity in the contra-lateral (undamaged) jugular vein was also determined, to serve as a control. Concurrently, another rabbit was subjected to the same procedure, but was given only a standard sodium chloride solution, as a control.

Prothrombin = target: T1, Prothrombin (Homo sapiens, UniProt P00734); test: Prothrombin (Factor II) assay, Example 4; type: biochemical; conditions: for Prothrombin: Control 87
T1 construct: from tissue; host or cells: human plasma
Source text: as §1

F XI = target: T2, F XI (Homo sapiens, UniProt P03951); test: Factor XI assay, Example 4; type: biochemical; conditions: for F XI: Control 117
T2 construct: from tissue; host or cells: human plasma
Source text: as §1

F VII = target: T3, F VII (Homo sapiens, UniProt P08709); test: Factor VII assay, Example 4; type: biochemical; conditions: for F VII: Control 73
T3 construct: from tissue; host or cells: human plasma
T3 sequence (P08709 61-466): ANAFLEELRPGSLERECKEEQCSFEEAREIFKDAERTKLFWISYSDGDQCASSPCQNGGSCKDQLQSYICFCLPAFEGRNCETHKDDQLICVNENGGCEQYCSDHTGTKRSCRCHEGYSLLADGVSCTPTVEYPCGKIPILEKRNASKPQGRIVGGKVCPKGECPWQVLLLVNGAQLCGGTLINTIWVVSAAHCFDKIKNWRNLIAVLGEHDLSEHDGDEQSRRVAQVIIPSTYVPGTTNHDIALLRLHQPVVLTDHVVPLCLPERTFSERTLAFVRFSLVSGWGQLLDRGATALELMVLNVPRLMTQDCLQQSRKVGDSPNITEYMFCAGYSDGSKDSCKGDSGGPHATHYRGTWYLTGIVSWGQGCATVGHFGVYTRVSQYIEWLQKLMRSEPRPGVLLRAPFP
Source text: as §1

F IX = target: T4, F IX (Homo sapiens, UniProt P00740); test: Factor IX assay, Example 4; type: biochemical; parameters: F IX: unit not given beside the values; conditions: for V IX: solution D; for V IX / F IX: Control 66
T4 construct: from tissue; host or cells: human plasma
Source text: as §1

[5] = Sodium bisulphite 0.01 mg/ml, solution D
[6] = Sodium bisulphite 0.05 mg/ml, solution D
[7] = Sodium bisulphite 0.1 mg/ml, solution D
[8] = Sodium bisulphite 0.5 mg/ml, solution D
[9] = Sodium bisulphite 1.0 mg/ml, solution D
[10] = Sodium bisulphite 5.0 mg/ml, solution D
[11] = chemical grade sodium bisulphite 0.01 mg/ml
[12] = chemical grade sodium bisulphite 0.05 mg/ml
[13] = chemical grade sodium bisulphite 0.1 mg/ml
[14] = chemical grade sodium bisulphite 0.5 mg/ml
[15] = chemical grade sodium bisulphite 1.0 mg/ml
[16] = chemical grade sodium bisulphite 5.0 mg/ml

T2 sequence (P03951 19-625): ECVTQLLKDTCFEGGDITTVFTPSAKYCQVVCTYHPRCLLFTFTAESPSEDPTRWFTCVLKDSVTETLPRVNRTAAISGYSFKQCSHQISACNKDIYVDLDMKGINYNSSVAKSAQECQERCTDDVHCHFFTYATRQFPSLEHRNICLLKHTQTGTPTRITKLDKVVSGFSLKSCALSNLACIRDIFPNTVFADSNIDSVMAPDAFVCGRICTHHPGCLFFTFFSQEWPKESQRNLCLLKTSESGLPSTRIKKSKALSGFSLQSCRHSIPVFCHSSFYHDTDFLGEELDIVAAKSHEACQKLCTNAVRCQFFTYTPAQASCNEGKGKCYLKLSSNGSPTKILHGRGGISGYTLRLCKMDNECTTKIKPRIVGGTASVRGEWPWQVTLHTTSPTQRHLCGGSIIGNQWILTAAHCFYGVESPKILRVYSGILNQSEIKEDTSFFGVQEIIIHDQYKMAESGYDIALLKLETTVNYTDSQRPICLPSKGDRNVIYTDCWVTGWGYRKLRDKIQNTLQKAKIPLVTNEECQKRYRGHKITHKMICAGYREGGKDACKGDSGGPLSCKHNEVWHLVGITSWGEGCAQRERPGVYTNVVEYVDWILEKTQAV
T4 sequence (P00740 47-461): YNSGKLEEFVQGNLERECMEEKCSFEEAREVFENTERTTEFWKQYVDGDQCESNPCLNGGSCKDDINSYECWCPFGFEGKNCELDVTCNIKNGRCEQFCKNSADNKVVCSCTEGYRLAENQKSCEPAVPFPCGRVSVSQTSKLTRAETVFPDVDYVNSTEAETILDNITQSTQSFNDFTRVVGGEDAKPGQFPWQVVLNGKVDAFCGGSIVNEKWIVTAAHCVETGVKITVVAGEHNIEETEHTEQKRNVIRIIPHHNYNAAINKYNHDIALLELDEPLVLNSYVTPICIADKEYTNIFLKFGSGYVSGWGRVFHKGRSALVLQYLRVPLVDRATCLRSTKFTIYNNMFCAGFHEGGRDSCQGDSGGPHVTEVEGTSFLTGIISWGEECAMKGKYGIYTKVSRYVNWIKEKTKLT

## Sodium bisulphite
[1]
  PTT: 114.80 s
Human plasma [2]; Sodium bisulphite 0.01 mg/ml, solution D, Control 12.20
  PTT: 12.33 s
Human plasma [2]; Sodium bisulphite 0.05 mg/ml, solution D, Control 12.20
  PTT: 12.43 s
Human plasma [2]; Sodium bisulphite 0.1 mg/ml, solution D, Control 12.20
  PTT: 12.85 s
Human plasma [2]; Sodium bisulphite 0.5 mg/ml, solution D, Control 12.20
  PTT: 15.43 s
Human plasma [2]; Sodium bisulphite 1.0 mg/ml, solution D, Control 12.20
  PTT: 22.63 s
Human plasma [2]; Sodium bisulphite 5.0 mg/ml, solution D, Control 12.20
  PTT: >150 s
Human plasma [2]; chemical grade sodium bisulphite 0.01 mg/ml, Control 34.67
  PTT: 32.80 s
Human plasma [2]; chemical grade sodium bisulphite 0.05 mg/ml, Control 34.67
  PTT: 33.77 s
Human plasma [2]; chemical grade sodium bisulphite 0.1 mg/ml, Control 34.67
  PTT: 34.40 s
Human plasma [2]; chemical grade sodium bisulphite 0.5 mg/ml, Control 34.67
  PTT: 44.87 s
Human plasma [2]; chemical grade sodium bisulphite 1.0 mg/ml, Control 34.67
  PTT: 78.46 s
Human plasma [2]; chemical grade sodium bisulphite 5.0 mg/ml, Control 34.67
  PTT: >150 s
Human plasma [3]; Sodium bisulphite 0.01 mg/ml, solution D, Control 34.67
  PT: 33.37 s
Human plasma [3]; Sodium bisulphite 0.05 mg/ml, solution D, Control 34.67
  PT: 34.00 s
Human plasma [3]; Sodium bisulphite 0.1 mg/ml, solution D, Control 34.67
  PT: 34.85 s
Human plasma [3]; Sodium bisulphite 0.5 mg/ml, solution D, Control 34.67
  PT: 42.73 s
Human plasma [3]; Sodium bisulphite 1.0 mg/ml, solution D, Control 34.67
  PT: 85.33 s
Human plasma [3]; Sodium bisulphite 5.0 mg/ml, solution D, Control 34.67
  PT: >150 s
Human plasma [3]; chemical grade sodium bisulphite 0.01 mg/ml, Control 12.20
  PT: 12.30 s
Human plasma [3]; chemical grade sodium bisulphite 0.05 mg/ml, Control 12.20
  PT: 12.47 s
Human plasma [3]; chemical grade sodium bisulphite 0.1 mg/ml, Control 12.20
  PT: 12.90 s
Human plasma [3]; chemical grade sodium bisulphite 0.5 mg/ml, Control 12.20
  PT: 16.10 s
Human plasma [3]; chemical grade sodium bisulphite 1.0 mg/ml, Control 12.20
  PT: 22.38 s
Human plasma [3]; chemical grade sodium bisulphite 5.0 mg/ml, Control 12.20
  PT: >150 s
[4]; continuous infusion 460 mg/kg per hr, 5 hours, control given sodium chloride solution
  radioactivity (radioactive fibrinogen) in damaged jugular vein, control rabbit relative to infused rabbit: 7 times
[4]; other rabbits similarly evaluated, apparently overdosing
  death of other rabbits during infusion: died before the experiment was completed
Prothrombin; [5]
  Prothrombin: 79%
Prothrombin; [6]
  Prothrombin: 80%
Prothrombin; [7]
  Prothrombin: 72%
Prothrombin; [8]
  Prothrombin: 40%
Prothrombin; [9]
  Prothrombin: 26%
Prothrombin; [10]
  Prothrombin: 5%
Prothrombin; [11]
  Prothrombin: 88%
Prothrombin; [12]
  Prothrombin: 82%
Prothrombin; [13]
  Prothrombin: 75%
Prothrombin; [14]
  Prothrombin: 34%
Prothrombin; [15]
  Prothrombin: 25%
Prothrombin; [16]
  Prothrombin: 8%
Prothrombin; human plasma
  effect on Factor II: mildly affected
F XI; 0.5 mg per ml, human plasma
  effect on Factor XI: significant inhibitory effect
F XI; [5]
  F XI: 98%
F XI; [6]
  F XI: 81%
F XI; [7]
  F XI: 58%
F XI; [8]
  F XI: 27%
F XI; [9]
  F XI: 4%
F XI; [10]
  F XI: <1%
F XI; [11]
  F XI: 83
F XI; [12]
  F XI: 82
F XI; [13]
  F XI: 55
F XI; [14]
  F XI: 24
F XI; [15]
  F XI: 2
F XI; [16]
  F XI: <1
F VII; 0.5 mg per ml, human plasma
  effect on Factor VII: significant inhibitory effect
F VII; [5]
  F VII: 67%
F VII; [6]
  F VII: 57%
F VII; [7]
  F VII: 51%
F VII; [8]
  F VII: 23%
F VII; [9]
  F VII: 8%
F VII; [10]
  F VII: 1%
F VII; [11]
  F VII: 62
F VII; [12]
  F VII: 63
F VII; [13]
  F VII: 53
F VII; [14]
  F VII: 17
F VII; [15]
  F VII: 7
F VII; [16]
  F VII: 2
F IX; 0.5 mg per ml, human plasma
  effect on Factor IX: significant inhibitory effect
F IX; Sodium bisulphite 0.01 mg/ml
  V IX: 60%
F IX; Sodium bisulphite 0.05 mg/ml
  V IX: 52%
F IX; Sodium bisulphite 0.1 mg/ml
  V IX: 56%
F IX; Sodium bisulphite 0.5 mg/ml
  V IX: 4%
F IX; Sodium bisulphite 1.0 mg/ml
  V IX: 3%
F IX; Sodium bisulphite 5.0 mg/ml
  V IX: <1%
F IX; [11]
  F IX: 49
F IX; [12]
  F IX: 44
F IX; [13]
  F IX: 40
F IX; [14]
  F IX: 5
F IX; [15]
  F IX: 1
F IX; [16]
  F IX: <1
